In ChEMBL document CHEMBL1154001, “Discovery of potent and selective DP1 receptor antagonists in the azaindole series” (Bioorg Med Chem Lett, 2009):

Tests used:
[1] = Bioavailability in rat; type: ADME, organism-based; conditions: in vivo
[2] = Terminal half life in rat at 10 mg/kg; type: ADME, organism-based; design: dose 10 mg/kg; conditions: in vivo, read-out: beta t1/2 (converted)
[3] = Cmax in rat at 30 mg/kg; type: ADME, organism-based; design: dose 30 mg/kg; conditions: in vivo
[4] = Plasma clearance in rat at 10 mg/kg; type: ADME, organism-based; design: dose 10 mg/kg
[5] = Volume of distribution at steady state in rat at 10 mg/kg; type: ADME, organism-based; design: dose 10 mg/kg; conditions: in vivo, read-out: Vdss
[6] = Bioavailability in Beagle dog; type: ADME, organism-based, Canis lupus familiaris; conditions: in vivo
[7] = Terminal half life in Beagle dog at 10 mg/kg; type: ADME, organism-based, Canis lupus familiaris; design: dose 10 mg/kg; conditions: in vivo, read-out: beta t1/2 (converted)
[8] = Cmax in Beagle dog at 10 mg/kg; type: ADME, organism-based, Canis lupus familiaris; design: dose 10 mg/kg; conditions: in vivo
[9] = Plasma clearance in Beagle dog at 2 mg/kg; type: ADME, organism-based, Canis lupus familiaris; design: dose 2 mg/kg
[10] = Volume of distribution at steady state in Beagle dog at 2 mg/kg; type: ADME, organism-based, Canis lupus familiaris; design: dose 2 mg/kg; conditions: in vivo, read-out: Vdss
[11] = Bioavailability in cynomolgus monkey; type: ADME, organism-based, Macaca fascicularis; conditions: in vivo
[12] = Terminal half life in cynomolgus monkey at 10 mg/kg; type: ADME, organism-based, Macaca fascicularis; design: dose 10 mg/kg; conditions: in vivo, read-out: beta t1/2 (converted)
[13] = Cmax in cynomolgus monkey at 4 mg/kg; type: ADME, organism-based, Macaca fascicularis; design: dose 4 mg/kg; conditions: in vivo
[14] = Plasma clearance in cynomolgus monkey at 2 mg/kg; type: ADME, organism-based, Macaca fascicularis; design: dose 2 mg/kg
[15] = Volume of distribution at steady state in cynomolgus monkey at 2 mg/kg; type: ADME, organism-based, Macaca fascicularis; design: dose 2 mg/kg; conditions: in vivo, read-out: Vdss
[16] = Bioavailability in squirrel monkey; type: ADME, organism-based; conditions: saimiri, in vivo
[17] = Terminal half life in squirrel monkey at 10 mg/kg; type: ADME, organism-based; design: dose 10 mg/kg; conditions: saimiri, in vivo, read-out: beta t1/2 (converted)
[18] = Cmax in squirrel monkey at 10 mg/kg; type: ADME, organism-based; design: dose 10 mg/kg; conditions: saimiri, in vivo
[19] = Plasma clearance in squirrel monkey at 5 mg/kg; type: ADME, organism-based; design: dose 5 mg/kg; conditions: saimiri
[20] = Volume of distribution at steady state in squirrel monkey at 5 mg/kg; type: ADME, organism-based; design: dose 5 mg/kg; conditions: saimiri, in vivo, read-out: Vdss

CC(C)c1nccc2c1c(Sc1ccc(Cl)c(Cl)c1)c1n2CC[C@@H]1CC(=O)O
bioavailability [1]: 53% | half-life [2]: 8.3 h | Cmax [3]: 28 µM | clearance [4]: 1.6 mL/min/kg | Vd [5]: 0.47 L/kg | bioavailability [6]: 23% | half-life [7]: 8.6 h | Cmax [8]: 9 µM | clearance [9]: 4 mL/min/kg | Vd [10]: 1.2 L/kg | bioavailability [11]: 4% | half-life [12]: 13.8 h | Cmax [13]: 0.06 µM | clearance [14]: 21 mL/min/kg | Vd [15]: 1.2 L/kg | bioavailability [16]: 43% | half-life [17]: 1.4 h | Cmax [18]: 8.5 µM | clearance [19]: 7.3 mL/min/kg | Vd [20]: 0.78 L/kg
